Here are results for 13 compounds from ChEMBL document CHEMBL1132382 (J Med Chem, 1999).

Sequence of Carbonic anhydrase 1 (P00915 whole entry): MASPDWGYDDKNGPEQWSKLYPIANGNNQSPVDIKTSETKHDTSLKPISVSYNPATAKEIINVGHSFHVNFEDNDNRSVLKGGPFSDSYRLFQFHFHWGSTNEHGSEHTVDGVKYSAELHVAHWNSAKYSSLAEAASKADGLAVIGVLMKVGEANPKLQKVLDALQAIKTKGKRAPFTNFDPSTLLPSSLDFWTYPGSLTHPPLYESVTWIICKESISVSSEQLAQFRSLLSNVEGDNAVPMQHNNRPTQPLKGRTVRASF

The target of the first test is T1, Carbonic anhydrase 4 (Bos taurus, UniProt Q95323).
T1 sequence (Q95323 whole entry): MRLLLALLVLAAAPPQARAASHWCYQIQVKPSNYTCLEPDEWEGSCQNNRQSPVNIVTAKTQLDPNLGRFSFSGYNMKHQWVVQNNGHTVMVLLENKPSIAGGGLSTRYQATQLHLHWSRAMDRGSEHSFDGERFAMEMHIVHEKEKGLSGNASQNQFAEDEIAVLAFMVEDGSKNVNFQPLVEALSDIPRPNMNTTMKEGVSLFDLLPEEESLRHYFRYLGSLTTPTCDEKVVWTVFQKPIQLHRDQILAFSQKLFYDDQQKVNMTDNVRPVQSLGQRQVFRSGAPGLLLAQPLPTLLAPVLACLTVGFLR
Description: Inhibitory activity against bovine carbonic anhydrase IV (CA4), isolated from bovine lung microsomes
As usually defined, the Ki is a dissociation constant, usually derived from enzyme kinetics or from competition with a known ligand. A lower Ki goes with a stronger hold on the target. Take `CN(CC(=O)Nc1ccc(S(N)(=O)=O)cc1)C(=N)N`: the Ki worked out at 140 nM.
Turning to `NCC(=O)NCC(=O)NNc1ccc(S(N)(=O)=O)cc1`, the Ki is 300 nM.
The compound `CNCC(=O)Nc1nnc(S(N)(=O)=O)s1` gave a Ki of 39 nM.
For the compound `NCC(=O)NCC(=O)Nc1ccc(S(N)(=O)=O)cc1Br`, affinity was put at a Ki of 70 nM.
Take `NCC(=O)NCC(=O)NS(=O)(=O)c1ccc(CO)cc1`: the Ki came to 150 nM.
Still for that read-out and setting: the result for `Cn1nc(S(N)(=O)=O)s/c1=N\S(=O)(=O)c1ccc(N)cc1` reads 0.8 nM; that for `NCC(=O)NCc1ccc(S(N)(=O)=O)cc1`, 82 nM; that for `NCC(=O)NCC(=O)NCCC(=O)Nc1nnc(S(N)(=O)=O)s1`, 12 nM.
On the same count and under the same terms, the result for `NCC(=O)NCC(=O)NCCc1ccc(S(N)(=O)=O)cc1` reads 70 nM.
Same read-out and setting: the result for `NCC(=O)NCC(=O)Nc1ccc(S(=O)(=O)Nc2ccc(S(N)(=O)=O)cc2)cc1` reads 66 nM; that for `CNCC(=O)Nc1ccc(S(N)(=O)=O)cc1`, 146 nM; that for `CN(CC(=O)Nc1cccc(S(N)(=O)=O)c1)C(=N)N`, 177 nM.
Regarding `CN(CC(=O)Nc1ccc(S(=O)(=O)Nc2nnc(S(N)(=O)=O)s2)cc1)C(=N)N`, affinity was put at a Ki of 5 nM.

The next test has as its target Carbonic anhydrase 1 (Homo sapiens, UniProt P00915).
Description: Inhibitory activity against human recombinant carbonic anhydrase I (CA1)
As to `CN(CC(=O)Nc1ccc(S(N)(=O)=O)cc1)C(=N)N`, the inhibition constant Ki is 14600 nM.
Turning to `NCC(=O)NCC(=O)NNc1ccc(S(N)(=O)=O)cc1`, the Ki was determined as 25200 nM. Against the preceding compound, the Ki is about 1.7-fold higher.
The compound `CNCC(=O)Nc1nnc(S(N)(=O)=O)s1` came in with a Ki of 305 nM. Against the preceding compound, the Ki is about 83-fold lower.
The compound `NCC(=O)NCC(=O)Nc1ccc(S(N)(=O)=O)cc1Br` displayed an inhibitory constant (Ki) of 570 nM. This Ki is about 1.9-fold higher than that of the compound before.
In turn, `NCC(=O)NCC(=O)NS(=O)(=O)c1ccc(CO)cc1` gave an inhibitory constant (Ki) of 1500 nM.
Take `Cn1nc(S(N)(=O)=O)s/c1=N\S(=O)(=O)c1ccc(N)cc1`: the affinity corresponds to a Ki of 1 nM.
As for `NCC(=O)NCc1ccc(S(N)(=O)=O)cc1`, the affinity corresponds to a Ki of 1400 nM.
On the same count and under the same terms, the result for `NCC(=O)NCC(=O)NCCC(=O)Nc1nnc(S(N)(=O)=O)s1` reads 21 nM; that for `NCC(=O)NCC(=O)NCCc1ccc(S(N)(=O)=O)cc1`, 800 nM.
On the same count and under the same terms, the result for `NCC(=O)NCC(=O)Nc1ccc(S(=O)(=O)Nc2ccc(S(N)(=O)=O)cc2)cc1` reads 54 nM.
In turn, `CNCC(=O)Nc1ccc(S(N)(=O)=O)cc1` showed a Ki of 15000 nM.
Compound `CN(CC(=O)Nc1cccc(S(N)(=O)=O)c1)C(=N)N` had an inhibition constant Ki of 16200 nM.
The compound `CN(CC(=O)Nc1ccc(S(=O)(=O)Nc2nnc(S(N)(=O)=O)s2)cc1)C(=N)N` displayed a Ki of 12 nM.
